Experimental data from paper PMC10610505, “Synthesis and Biological Evaluation of Some New 3-Aryl-2-thioxo-2,3-dihydroquinazolin-4(1H)-ones and 3-Aryl-2-(benzylthio)quinazolin-4(3H)-ones as Antioxidants; COX-2, LDHA, α-Glucosidase and α-Amylase Inhibitors; and Anti-Colon Carcinoma and Apoptosis-Inducing Agents” (Pharmaceuticals, 2023).
Where two headings read alike, the source gives them in different places.

Assays:
[1] = DPPH radical scavenging assay; type: biochemical; conditions: for Mean IC50 for scavenging initial DPPH radicals: mean ± SD of three replicates; for IC50: mean ± SD, converted from mg/mL, read-out: Mean IC50 for scavenging initial DPPH radicals (converted)
Description: In principle, the antioxidant power of a compound in this assay is correlated to its tendency to reduce the stable, purple-colored DPPH radical through a hydrogen atom transfer (HAT) mechanism and/or a single electron transfer mechanism, thereby converting it to the yellow-colored 2,2-diphenyl-1-picrylhydrazine, whereby this reduction is accompanied by a depletion in the amount of the initial DPPH radicals and a change in the absorbance of the test solution accordingly, which can be detected relative to the blank solution at λ = 517 nm.
The antioxidant potencies of all synthesized compounds were investigated using a 1,1 diphenyl-2-picrylhydrazyl (DPPH) radical scavenging assay according to the protocol described by Bersuder et al.. In brief, a 0.5 mL volume of DPPH ethanolic solution was mixed with an equal volume of each sample concentration (i.e., the test compound or butylated hydroxytoluene, BHT, which was used as the reference antioxidant in the positive control experiment), shaken strongly, and incubated at room temperature for 1 h in darkness. The absorbance of the residual DPPH radicals was measured at λ = 519 nm and compared to the negative control (without the test compound or reference antioxidant). The DPPH radical scavenging power was calculated using the following formula: scavenging efficiency (%) = (1 − Acompound/AControl) × 100, where Acompound and Acontrol are the absorbance of the tested compound and the negative control, respectively. […] Additionally, the ± SD values were calculated from three independent triplicate measurements.

COX-2 = biological target: T1, COX-2 (Homo sapiens, UniProt P35354); assay: COX-2 inhibitory screening assay (Cayman kit); type: biochemical; conditions: for Increase in COX-2 inhibitory efficiency by duplicating the concentration: % inhibition at 0.200 mg/mL divided by % inhibition at 0.100 mg/mL; for inhibition at 100 µg/mL: at 0.100 mg/mL; for inhibition at 100 µg/mL / inhibition at 200 µg/mL: read-out: COX-2 mean % inhibition ± SD; for inhibition at 200 µg/mL: at 0.200 mg/mL
T1 construct: purchased Cayman Chemical Company 701080
T1 sequence (P35354 18-604): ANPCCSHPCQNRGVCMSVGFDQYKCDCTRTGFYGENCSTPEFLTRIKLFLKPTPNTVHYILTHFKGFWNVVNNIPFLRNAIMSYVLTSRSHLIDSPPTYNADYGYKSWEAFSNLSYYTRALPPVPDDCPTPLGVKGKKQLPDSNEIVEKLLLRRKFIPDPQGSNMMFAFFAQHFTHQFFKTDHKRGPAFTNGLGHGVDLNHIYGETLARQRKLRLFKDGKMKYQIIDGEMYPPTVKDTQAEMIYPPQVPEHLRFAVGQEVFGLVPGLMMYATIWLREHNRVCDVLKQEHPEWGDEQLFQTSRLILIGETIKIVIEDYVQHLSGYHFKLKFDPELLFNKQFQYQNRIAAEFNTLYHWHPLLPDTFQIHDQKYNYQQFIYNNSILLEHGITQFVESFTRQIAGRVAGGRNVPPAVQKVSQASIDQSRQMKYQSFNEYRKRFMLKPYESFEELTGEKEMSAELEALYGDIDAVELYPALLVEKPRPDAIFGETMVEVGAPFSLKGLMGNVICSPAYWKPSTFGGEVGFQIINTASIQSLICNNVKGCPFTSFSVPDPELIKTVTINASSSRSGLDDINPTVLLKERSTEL
Method: Each compound of the two series, 3a–h and 5a–h, was resuspended in 100% DMSO at a final concentration of 10 mg/mL. […] Briefly, 10 µL of the tested compound was added to a mixture of the reaction buffer solution (160 µL of 0.1 M Tris-HCl, pH 8.0, in the presence of 2 mM phenol and 5 mM EDTA), COX-2 (10 µL) and heme (10 µL). After a 10 min incubation at 37 °C, the reaction was started by adding arachidonic acid (10 µL), rapidly mixed and kept at 37 °C for 2 min. PGF2α generated via PGH2 reduction with stannous chloride (30 µL) was incubated at room temperature for 5 min. The PGF2α amount was then determined via an enzyme immunoassay. Prior to incubation with the COX-2 reaction (at room temperature 18 h), the 96-well plate was previously coated with a mouse anti-rabbit monoclonal antibody. Unbound reagents were removed by washing the plate followed by adding Ellman’s reagent to the well. The reaction product displaying a distinct yellow color was measured at 410 nm using a UV microplate reader. The % inhibition was calculated by comparing the PGF2α produced in the compound-treated samples with a control sample, using the following equation: % inhibition is equal to [([PGF2α]control − [PGF2α]sample) /[PGF2α ]control ] × 100. […] The COX-2 inhibitory efficiency was expressed as an inhibition percentage, which was determined via a comparison with the negative control experiments.

[2] = biological target: purified recombinant human LDHA protein (Homo sapiens, UniProt P00338); assay: Lactate dehydrogenase A (LDHA) inhibitory assay; type: biochemical; conditions: for Fold change of LDHA inhibition as compared to 0.1 mg/mL: % inhibition at 0.200 mg/mL divided by % inhibition at 0.100 mg/mL; for inhibition at 100 µg/mL: at 0.1 mg/mL; for inhibition at 100 µg/mL / inhibition at 200 µg/mL: read-out: LDHA mean % inhibition ± SD; for inhibition at 200 µg/mL: at 0.2 mg/mL
Method: The LDHA inhibitory effectiveness was investigated by measuring the amounts of consumed NADH [73]. […] The fluorescence of NADH, which has an excitation wavelength of 340 nm and an emission wavelength of 460 nm, was detected using a spectrofluorometer. […] The LDHA inhibitory efficiency was expressed as an inhibition percentage, which was determined via a comparison with the negative control experiments.

[3] = system: LoVo human colon carcinoma cells; assay: Viability assay (LDH release), LoVo; type: cell-based; conditions: for viability at 200 µg/mL: Homo sapiens, LoVo, 48 h, read-out: Mean % of viable cells ± SD, LoVo
Method: (§1) The anticancer activities of all the synthesized compounds were assessed against two human colon carcinoma cell lines, namely LoVo and HCT-116 (Table 6), via the determination of the mean percents of the viable cancerous cells remaining after being incubated with 200 µg/mL of each test compound for 48 h using LDH assay.
(§2) The samples were diluted in Dulbecco’s Modified Eagle’s Medium, consisting of 10% fetal bovine serum (FBS), added to cells grown and cultured for 24 h in a 5% CO2-humidified incubator at 37 °C. Thereafter, the activity of lactate dehydrogenase released from damaged cells was determined in the collected supernatant aliquots using an ELISA end-point assay (Benchmark Plus, Bio-Rad, CA, USA); 0.1% Triton X-100 in the assay medium and the assay medium only were used as the positive and negative controls, respectively. Cell viability was expressed as a relative percentage of the OD values (at 550 nm) for compound-treated cells (final concentration of 200 µg /mL) and the negative control, which was shown as the mean % ± SD (n = 3). The results of the viability assays for the potential cytotoxic candidates were compared with the % of viable human umbilical vein endothelial cells (HUVEC) at the same concentration. These cells were grown in Dulbecco’s Modified Eagle’s Medium (PAN-Biotech; Barcelona, Spain) containing 10% FBS (Sigma Aldrich; St. Quentin-Fallavier, France), 2 mM Glutamine (Sigma Aldrich), 100 units/mL penicillin and […] streptomycin (Life Technologies; Paisley, UK).

[4] = system: HCT-116 human colon carcinoma cells; assay: Viability assay (LDH release), HCT-116; type: cell-based; conditions: for viability at 200 µg/mL: Homo sapiens, read-out: Mean % of viable cells ± SD, HCT-116
Method: as §1, §2

α-amylase = assay: In vitro α-amylase (AA) inhibition assay; conditions: mean ± SD of three replicates; for IC50: read-out: Mean IC50 α-Amylase (AA)
Method: Then, 180 µL of Labtest (the amylase substrate) was added and the samples were incubated for 8 min, followed by measuring the first reaction at 620 nm to obtain (X1). Afterwards, the reaction mixture was incubated for an additional 5 min at 37 °C; then, the second reaction was measured to obtain the final reading (X2). […] The results were expressed as IC50 µg/mL (as well as µM) and were determined from the standard curves.

Row | Molecule | Mean IC50 for scavenging initial DPPH radicals [1] | IC50 [1] | Increase in COX-2 inhibitory efficiency by duplicating the concentration (COX-2) | inhibition at 100 µg/mL (COX-2) | inhibition at 200 µg/mL (COX-2) | Fold change of LDHA inhibition as compared to 0.1 mg/mL [2] | inhibition at 100 µg/mL [2] | inhibition at 200 µg/mL [2] | viability at 200 µg/mL ([3]; 200 µg/mL) | viability at 200 µg/mL ([4]; HCT-116, 200 µg/mL, 48 h) | Mean IC50 α-Amylase (AA) (α-amylase) | IC50 (α-amylase) | Mean % of viable cells, LoVo ([3]; positive control, 0.1%) | Mean % of viable cells, HCT-116 ([4]; positive control, 0.1%) | viability at 200 µg/mL [3] | viability at 200 µg/mL ([4]; HCT-116, 48 h)
1 | COc1cc2nc(SCc3cccc([N+](=O)[O-])c3)n(-c3cccc(C(F)(F)F)c3)c(=O)c2cc1OC [Compound 5c, 2-(3-Nitrobenzylsulfanyl)-6,7-dimethoxy-3(3-trifluoromethyl-phenyl)-3H-quinazolin-4-one] | 186 ± 6 µg/mL | 359 µM | 1.41 fold | 18.6 ± 3.46% | 26.2 ± 4.03% | 1.67 fold | 8.55 ± 1.06% | 14.3 ± 1.56% | 78.3 ± 3.51% | 82.3 ± 2.52% | 197.333 ± 4.509 µg/mL | 381 µM |  |  |  | 
2 | COc1ccc(Br)c(CSc2nc3ccc(Cl)cc3c(=O)n2-c2ccc([N+](=O)[O-])cc2)c1 [Compound 5f, 2-(2-Bromo-5-methoxy-benzylsulfanyl)-6-chloro-3-(4-nitro-phenyl)-3H-quinazolin-4-one] | 241 ± 13 µg/mL | 452 µM | 1.80 fold | 28.9 ± 2.69% | 52 ± 2.83% | 1.60 fold | 31.9 ± 2.48% | 51 ± 3.61% | 84.3 ± 3.51% | 76 ± 1.73% | 106.667 ± 5.033 µg/mL | 200 µM |  |  |  | 
3 | O=c1c2cc(Cl)ccc2nc(SCc2ccccc2F)n1-c1cccc(C(F)(F)F)c1 [Compound 5a, 2-(2-Fluoro-benzylsulfanyl)-6-chloro-3-(3-trifluoromethyl-phenyl)-3H-quinazolin-4-one] | 80 ± 2 µg/mL | 172 µM | 1.85 fold | 34.2 ± 1.7% | 63.1 ± 5.87% | 1.62 fold | 24 ± 1.7% | 38.9 ± 1.13% | 90.3 ± 1.53% | 89.7 ± 3.06% | 86.667 ± 4.509 µg/mL | 186 µM |  |  |  | 
4 | Triton X-100 [reference compound] |  |  |  |  |  |  |  |  |  |  |  |  | 0.000% | 0.000% |  | 
5 | O=c1c2cc(Br)ccc2[nH]c(=S)n1-c1cccc(C(F)(F)F)c1 [Compound 3b, 6-Bromo-2-thioxo-3-(3-trifluoromethyl-phenyl)-2,3-dihydro-1H-quinazolin-4-one] |  |  | 1.72 fold | 6.25 ± 1.77% | 10.8 ± 2.48% | 1.45 fold | 29.1 ± 2.19% | 42.4 ± 1.91% |  |  |  | 427 µM |  |  | 62 ± 3.61% | 70.7 ± 2.52%
